# Test results as given in ChEMBL document CHEMBL1135126, “Identification of novel antifungal nonapeptides through the screening of combinatorial peptide libraries based on a hexapeptide motif” (Bioorg Med Chem Lett, 2002).
# How the values were obtained:
# [1] = system: Candida albicans; assay: Concentration that substantially inhibit growth of Candida albicans; type: functional, organism-based
# [2] = system: Cryptococcus neoformans; assay: Concentration that substantially inhibit the growth of Cryptococcus neoformans; type: functional
MIC [2] [µM],Structure (SMILES),IC50 [1] [µM]
2.39,CC[C@H](C)[C@H](NC(=O)[C@H](CCCN=C(N)N)NC(=O)[C@H](CCCCN)NC(=O)[C@H](Cc1c[nH]cn1)NC(=O)[C@@H](Cc1ccccc1)NC(=O)[C@@H](NC(=O)[C@@H](Cc1ccccc1)NC(=O)[C@@H](Cc1c[nH]c2ccccc12)NC(=O)[C@@H](N)CCCN=C(N)N)[C@@H](C)CC)C(N)=O,4.64
4.96,CC[C@H](C)[C@H](NC(=O)[C@@H](Cc1ccccc1)NC(=O)[C@@H](Cc1c[nH]c2ccccc12)NC(=O)[C@@H](N)CCCN=C(N)N)C(=O)N[C@H](Cc1ccccc1)C(=O)N[C@@H](Cc1c[nH]cn1)C(=O)N[C@@H](CCCCN)C(=O)N[C@@H](CCCN=C(N)N)C(=O)N[C@@H](C)C(N)=O,5.99
2.43,CC[C@H](C)[C@H](NC(=O)[C@@H](Cc1ccccc1)NC(=O)[C@@H](Cc1c[nH]c2ccccc12)NC(=O)[C@@H](N)CCCN=C(N)N)C(=O)N[C@H](Cc1ccccc1)C(=O)N[C@@H](Cc1c[nH]cn1)C(=O)N[C@@H](CCCCN)C(=O)N[C@@H](CCCCN)C(=O)N[C@H](C(N)=O)C(C)C,3.08
4.62,CC[C@H](C)[C@H](NC(=O)[C@@H](Cc1ccccc1)NC(=O)[C@@H](Cc1c[nH]c2ccccc12)NC(=O)[C@@H](N)CCCN=C(N)N)C(=O)N[C@H](Cc1ccccc1)C(=O)N[C@@H](Cc1c[nH]cn1)C(=O)N[C@@H](CCCCN)C(=O)N[C@@H](CCCN=C(N)N)C(=O)N[C@@H](Cc1ccc(O)cc1)C(N)=O,7.08
2.45,CC[C@H](C)[C@H](NC(=O)[C@@H](Cc1ccccc1)NC(=O)[C@@H](Cc1c[nH]c2ccccc12)NC(=O)[C@@H](N)CCCN=C(N)N)C(=O)N[C@H](Cc1ccccc1)C(=O)N[C@@H](Cc1c[nH]cn1)C(=O)N[C@@H](CCCCN)C(=O)N[C@@H](CCCCN)C(=O)N[C@@H](CO)C(N)=O,1.77
2.37,CC[C@H](C)[C@H](NC(=O)[C@@H](Cc1ccccc1)NC(=O)[C@@H](Cc1c[nH]c2ccccc12)NC(=O)[C@@H](N)CCCN=C(N)N)C(=O)N[C@H](Cc1ccccc1)C(=O)N[C@@H](Cc1c[nH]cn1)C(=O)N[C@@H](CCCCN)C(=O)N[C@@H](CCCCN)C(=O)N[C@@H](CCC(N)=O)C(N)=O,2.58
4.54,CC[C@H](C)[C@H](NC(=O)[C@@H](Cc1ccccc1)NC(=O)[C@@H](Cc1c[nH]c2ccccc12)NC(=O)[C@@H](N)CCCN=C(N)N)C(=O)N[C@H](Cc1ccccc1)C(=O)N[C@@H](Cc1c[nH]cn1)C(=O)N[C@@H](CCCCN)C(=O)N[C@@H](CCCN=C(N)N)C(=O)N[C@@H](Cc1c[nH]c2ccccc12)C(N)=O,6.35
2.43,CC[C@H](C)[C@H](NC(=O)[C@@H](Cc1ccccc1)NC(=O)[C@@H](Cc1c[nH]c2ccccc12)NC(=O)[C@@H](N)CCCN=C(N)N)C(=O)N[C@H](Cc1ccccc1)C(=O)N[C@@H](Cc1c[nH]cn1)C(=O)N[C@@H](CCCCN)C(=O)N[C@@H](CCCCN)C(=O)N1CCC[C@H]1C(N)=O,3.89
2.32,CC[C@H](C)[C@H](NC(=O)[C@@H](Cc1ccccc1)NC(=O)[C@@H](Cc1c[nH]c2ccccc12)NC(=O)[C@@H](N)CCCN=C(N)N)C(=O)N[C@H](Cc1ccccc1)C(=O)N[C@@H](Cc1c[nH]cn1)C(=O)N[C@@H](CCCCN)C(=O)N[C@@H](CCCCN)C(=O)N[C@@H](CCCN=C(N)N)C(N)=O,1.64
,CC[C@H](C)[C@H](NC(=O)[C@@H](Cc1ccccc1)NC(=O)[C@@H](Cc1c[nH]c2ccccc12)NC(=O)[C@@H](N)CCCN=C(N)N)C(=O)N[C@H](Cc1ccccc1)C(=O)N[C@@H](Cc1c[nH]cn1)C(=O)N[C@@H](CCCCN)C(=O)N[C@@H](CCCCN)C(=O)N[C@@H](CCC(=O)O)C(N)=O,3.57
4.64,CC[C@H](C)[C@H](NC(=O)[C@@H](Cc1ccccc1)NC(=O)[C@@H](Cc1c[nH]c2ccccc12)NC(=O)[C@@H](N)CCCN=C(N)N)C(=O)N[C@H](Cc1ccccc1)C(=O)N[C@@H](Cc1c[nH]cn1)C(=O)N[C@@H](CCCCN)C(=O)N[C@@H](CCCN=C(N)N)C(=O)N[C@@H](CCCN=C(N)N)C(N)=O,4.15
2.44,CC[C@H](C)[C@H](NC(=O)[C@@H](Cc1ccccc1)NC(=O)[C@@H](Cc1c[nH]c2ccccc12)NC(=O)[C@@H](N)CCCN=C(N)N)C(=O)N[C@H](Cc1ccccc1)C(=O)N[C@@H](Cc1c[nH]cn1)C(=O)N[C@@H](CCCCN)C(=O)N[C@@H](CCCCN)C(=O)N[C@H](C(N)=O)[C@@H](C)O,2.38
2.39,CC[C@H](C)[C@H](NC(=O)[C@@H](Cc1ccccc1)NC(=O)[C@@H](Cc1c[nH]c2ccccc12)NC(=O)[C@@H](N)CCCN=C(N)N)C(=O)N[C@H](Cc1ccccc1)C(=O)N[C@@H](Cc1c[nH]cn1)C(=O)N[C@@H](CCCCN)C(=O)N[C@@H](CCCN=C(N)N)C(=O)N[C@@H](CC(N)=O)C(N)=O,4.64
4.74,CC[C@H](C)[C@H](NC(=O)[C@@H](Cc1ccccc1)NC(=O)[C@@H](Cc1c[nH]c2ccccc12)NC(=O)[C@@H](N)CCCN=C(N)N)C(=O)N[C@H](Cc1ccccc1)C(=O)N[C@@H](Cc1c[nH]cn1)C(=O)N[C@@H](CCCCN)C(=O)N[C@@H](CCCN=C(N)N)C(=O)N[C@@H](CCC(=O)O)C(N)=O,4.23
2.4,CC[C@H](C)[C@H](NC(=O)[C@@H](Cc1ccccc1)NC(=O)[C@@H](Cc1c[nH]c2ccccc12)NC(=O)[C@@H](N)CCCN=C(N)N)C(=O)N[C@H](Cc1ccccc1)C(=O)N[C@@H](Cc1c[nH]cn1)C(=O)N[C@@H](CCCCN)C(=O)N[C@@H](CCCCN)C(=O)N[C@@H](CC(N)=O)C(N)=O,3.35
2.4,CC[C@H](C)[C@H](NC(=O)[C@H](CCCCN)NC(=O)[C@H](CCCCN)NC(=O)[C@H](Cc1c[nH]cn1)NC(=O)[C@@H](Cc1ccccc1)NC(=O)[C@@H](NC(=O)[C@@H](Cc1ccccc1)NC(=O)[C@@H](Cc1c[nH]c2ccccc12)NC(=O)[C@@H](N)CCCN=C(N)N)[C@@H](C)CC)C(N)=O,1.65
2.35,CC[C@H](C)[C@H](NC(=O)[C@@H](Cc1ccccc1)NC(=O)[C@@H](Cc1c[nH]c2ccccc12)NC(=O)[C@@H](N)CCCN=C(N)N)C(=O)N[C@H](Cc1ccccc1)C(=O)N[C@@H](Cc1c[nH]cn1)C(=O)N[C@@H](CCCCN)C(=O)N[C@@H](CCCN=C(N)N)C(=O)N[C@@H](Cc1c[nH]cn1)C(N)=O,4.11
2.5,CC[C@H](C)[C@H](NC(=O)[C@@H](Cc1ccccc1)NC(=O)[C@@H](Cc1c[nH]c2ccccc12)NC(=O)[C@@H](N)CCCN=C(N)N)C(=O)N[C@H](Cc1ccccc1)C(=O)N[C@@H](Cc1c[nH]cn1)C(=O)N[C@@H](CCCCN)C(=O)N[C@@H](CCCN=C(N)N)C(=O)NCC(N)=O,4.48
1.16,CC[C@H](C)[C@H](NC(=O)[C@@H](Cc1ccccc1)NC(=O)[C@@H](Cc1c[nH]c2ccccc12)NC(=O)[C@@H](N)CCCN=C(N)N)C(=O)N[C@H](Cc1ccccc1)C(=O)N[C@@H](Cc1c[nH]cn1)C(=O)N[C@@H](CCCCN)C(=O)N[C@@H](CCCCN)C(=O)N[C@@H](Cc1ccc(O)cc1)C(N)=O,2.74
4.79,CC[C@H](C)[C@H](NC(=O)[C@@H](Cc1ccccc1)NC(=O)[C@@H](Cc1c[nH]c2ccccc12)NC(=O)[C@@H](N)CCCN=C(N)N)C(=O)N[C@H](Cc1ccccc1)C(=O)N[C@@H](Cc1c[nH]cn1)C(=O)N[C@@H](CCCCN)C(=O)N[C@@H](CCCN=C(N)N)C(=O)N[C@@H](CC(=O)O)C(N)=O,7.71
4.67,CC[C@H](C)[C@H](NC(=O)[C@@H](Cc1ccccc1)NC(=O)[C@@H](Cc1c[nH]c2ccccc12)NC(=O)[C@@H](N)CCCN=C(N)N)C(=O)N[C@H](Cc1ccccc1)C(=O)N[C@@H](Cc1c[nH]cn1)C(=O)N[C@@H](CCCCN)C(=O)N[C@@H](CCCN=C(N)N)C(=O)N[C@@H](Cc1ccccc1)C(N)=O,5.5
2.42,CC[C@H](C)[C@H](NC(=O)[C@@H](Cc1ccccc1)NC(=O)[C@@H](Cc1c[nH]c2ccccc12)NC(=O)[C@@H](N)CCCN=C(N)N)C(=O)N[C@H](Cc1ccccc1)C(=O)N[C@@H](Cc1c[nH]cn1)C(=O)N[C@@H](CCCCN)C(=O)N[C@@H](CCCN=C(N)N)C(=O)N1CCC[C@H]1C(N)=O,4.7
4.74,CC[C@H](C)[C@H](NC(=O)[C@@H](Cc1ccccc1)NC(=O)[C@@H](Cc1c[nH]c2ccccc12)NC(=O)[C@@H](N)CCCN=C(N)N)C(=O)N[C@H](Cc1ccccc1)C(=O)N[C@@H](Cc1c[nH]cn1)C(=O)N[C@@H](CCCCN)C(=O)N[C@@H](CCCN=C(N)N)C(=O)N[C@@H](CCC(N)=O)C(N)=O,3.92
4.89,CC[C@H](C)[C@H](NC(=O)[C@@H](Cc1ccccc1)NC(=O)[C@@H](Cc1c[nH]c2ccccc12)NC(=O)[C@@H](N)CCCN=C(N)N)C(=O)N[C@H](Cc1ccccc1)C(=O)N[C@@H](Cc1c[nH]cn1)C(=O)N[C@@H](CCCCN)C(=O)N[C@@H](CCCN=C(N)N)C(=O)N[C@@H](CO)C(N)=O,4.38
4.85,CC[C@H](C)[C@H](NC(=O)[C@@H](Cc1ccccc1)NC(=O)[C@@H](Cc1c[nH]c2ccccc12)NC(=O)[C@@H](N)CCCN=C(N)N)C(=O)N[C@H](Cc1ccccc1)C(=O)N[C@@H](Cc1c[nH]cn1)C(=O)N[C@@H](CCCCN)C(=O)N[C@@H](CCCN=C(N)N)C(=O)N[C@H](C(N)=O)C(C)C,4.88
2.36,CC[C@H](C)[C@H](NC(=O)[C@@H](Cc1ccccc1)NC(=O)[C@@H](Cc1c[nH]c2ccccc12)NC(=O)[C@@H](N)CCCN=C(N)N)C(=O)N[C@H](Cc1ccccc1)C(=O)N[C@@H](Cc1c[nH]cn1)C(=O)N[C@@H](CCCCN)C(=O)N[C@@H](CCCN=C(N)N)C(=O)N[C@@H](CCCCN)C(N)=O,3.34
2.36,CC[C@H](C)[C@H](NC(=O)[C@@H](Cc1ccccc1)NC(=O)[C@@H](Cc1c[nH]c2ccccc12)NC(=O)[C@@H](N)CCCN=C(N)N)C(=O)N[C@H](Cc1ccccc1)C(=O)N[C@@H](Cc1c[nH]cn1)C(=O)N[C@@H](CCCCN)C(=O)N[C@@H](CCCN=C(N)N)C(=O)N[C@@H](CCSC)C(N)=O,4.62
,CC[C@H](C)[C@H](NC(=O)[C@@H](Cc1ccccc1)NC(=O)[C@@H](Cc1c[nH]c2ccccc12)NC(=O)[C@@H](N)CCCN=C(N)N)C(=O)N[C@H](Cc1ccccc1)C(=O)N[C@@H](Cc1c[nH]cn1)C(=O)N[C@@H](CCCCN)C(=O)N[C@@H](CCCCN)C(=O)N[C@@H](Cc1c[nH]cn1)C(N)=O,1.9
